Results on 15 molecules are retold here after patent US20200247794A1, “PHARMACOPHORES, COMPOUNDS AND METHODS HAVING APPLICATION IN THE TREATMENT OF CANCER THROUGH INHIBITION OF CYP17A1 AND CYP19A1” (MANGOSUTHU UNIVERSITY OF TECHNOLOGY, priority 2015, published 2020).

Data set [1] has as its target T1, CYP17A1 (Homo sapiens, UniProt P05093).
T1 sequence (P05093 1-508): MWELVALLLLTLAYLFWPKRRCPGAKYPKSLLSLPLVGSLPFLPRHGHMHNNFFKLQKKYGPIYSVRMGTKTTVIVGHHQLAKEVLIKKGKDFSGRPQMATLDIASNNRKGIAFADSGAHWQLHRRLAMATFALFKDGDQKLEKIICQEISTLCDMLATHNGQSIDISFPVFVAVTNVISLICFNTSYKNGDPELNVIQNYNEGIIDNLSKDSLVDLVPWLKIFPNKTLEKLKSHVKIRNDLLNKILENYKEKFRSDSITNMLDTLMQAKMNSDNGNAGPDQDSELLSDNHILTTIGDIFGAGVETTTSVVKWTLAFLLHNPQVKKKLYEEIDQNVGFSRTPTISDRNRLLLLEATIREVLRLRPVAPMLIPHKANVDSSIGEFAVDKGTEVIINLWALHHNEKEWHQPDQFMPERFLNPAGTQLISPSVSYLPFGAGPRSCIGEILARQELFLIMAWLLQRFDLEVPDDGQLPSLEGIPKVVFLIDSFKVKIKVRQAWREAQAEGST
The following applies: cited from earlier work; for pIC50: −log IC50 (M), converted from literature IC50; for IC50: literature value, no unit in the table, nM.

In data set [2] the target is T1, CYP17A1. The data set can be described thus: CYP17A1 inhibition (CYP17A1 bactosomes, progesterone substrate, LC-MS/MS). Type of data set: biochemical. The arrangement: purchased Cypex, Dundee, UK; host or cells: bacterial membranes (bactosomes). The following applies: for inhibitory potency of CYP17A1 (in words): summary of Table 2; for IC50: 20 pmol/ml bactosomes, 0.1 μM progesterone, 50 μM to 50 nM.
Method: CYP17A1 inhibition was measured using 20 pmol/ml CYP17A1 bactosomes (Cypex, Dundee, UK) and 0.1 μM progesterone as a substrate and 1 mM NADPH in 50 mM potassium phosphate buffer pH 7.4 containing 5 mM magnesium chloride. Inhibitors were dissolved in DMSO and serially diluted in seven ½ log steps, final concentrations ranging from 50 μM to 50 nM. Reaction volume was 100 μl and final DMSO concentration was 1% (v/v). Reactions were started by the addition of NADPH and incubated at 37° C. for 20 minutes with shaking at 1800 rpm on a Bioshake IQ (Q-Instruments, Jena, Germany). Reactions were terminated by the addition of 200 μl methanol containing 1 μM tolbutamide as an internal standard.

The subject of data set [3] is CYP1A2, CYP2C9, CYP2C19, CYP2D6, and CYP3A4. The data set can be described thus: CYP inhibition against major 5 human liver CYPs (panel, summary in words). Type of data set: in vitro ADME. The following applies: drug-drug interaction remark.
The target of a further data set is T2, CYP2C9 (Homo sapiens, UniProt P11712).
T2 construct: purchased Cypex, Dundee CYP/XG001, Batch XG001001; host or cells: E. coli
The data set can be described thus: CYP inhibition, 5 CYP bactosome mix: CYP2C9 (diclofenac). The following applies: diclofenac 2 μM. Type of data set: in vitro ADME.

The target in another data set is T3, CYP2D6 (Homo sapiens, UniProt P10635).
T3 construct: purchased Cypex, Dundee CYP/XG001, Batch XG001001; host or cells: E. coli
The data set can be described thus: CYP inhibition, 5 CYP bactosome mix: CYP2D6 (bufuralol). The following applies: bufuralol 10 μM. The class given is in vitro ADME.

The target in a further data set is T4, CYP3A4 (Homo sapiens, UniProt P08684).
T4 construct: purchased Cypex, Dundee CYP/XG001, Batch XG001001; host or cells: E. coli
The data set can be described thus: CYP inhibition, 5 CYP bactosome mix: CYP3A4 (midazolam). The class given is in vitro ADME. The following applies: midazolam 2.5 μM.

The target of another data set is T5, CYP1A2 (Homo sapiens, UniProt P05177).
T5 construct: purchased Cypex, Dundee CYP/XG001, Batch XG001001; host or cells: E. coli
T5 sequence (P05177 1-516): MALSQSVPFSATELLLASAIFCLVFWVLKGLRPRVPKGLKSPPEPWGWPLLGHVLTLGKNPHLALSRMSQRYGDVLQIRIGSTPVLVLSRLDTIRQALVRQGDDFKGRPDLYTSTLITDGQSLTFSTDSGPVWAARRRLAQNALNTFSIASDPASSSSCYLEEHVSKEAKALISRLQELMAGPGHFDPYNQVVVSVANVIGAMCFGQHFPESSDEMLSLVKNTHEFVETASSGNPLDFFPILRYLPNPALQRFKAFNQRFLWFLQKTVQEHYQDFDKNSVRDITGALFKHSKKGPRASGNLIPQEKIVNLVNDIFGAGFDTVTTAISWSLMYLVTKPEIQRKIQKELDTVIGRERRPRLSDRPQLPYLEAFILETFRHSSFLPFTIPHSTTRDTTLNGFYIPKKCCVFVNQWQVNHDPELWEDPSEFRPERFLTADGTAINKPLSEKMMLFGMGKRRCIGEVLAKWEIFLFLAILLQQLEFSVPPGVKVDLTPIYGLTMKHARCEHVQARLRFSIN
The data set can be described thus: CYP inhibition, 5 CYP bactosome mix: CYP1A2 (tacrine). Type of data set: in vitro ADME. The following applies: tacrine 0.5 μM.

For the next data set, the target named is T6, CYP2C19 (Homo sapiens, UniProt P33261).
T6 construct: purchased Cypex, Dundee CYP/XG001, Batch XG001001; host or cells: E. coli
The data set can be described thus: CYP inhibition, 5 CYP bactosome mix: CYP2C19 ((S)-mephenytoin). Type of data set: in vitro ADME. The following applies: (S)-mephenytoin 40 μM.

In the next data set the target is T7, CYP19A1 (Homo sapiens, UniProt P11511).
T7 sequence (P11511 1-503): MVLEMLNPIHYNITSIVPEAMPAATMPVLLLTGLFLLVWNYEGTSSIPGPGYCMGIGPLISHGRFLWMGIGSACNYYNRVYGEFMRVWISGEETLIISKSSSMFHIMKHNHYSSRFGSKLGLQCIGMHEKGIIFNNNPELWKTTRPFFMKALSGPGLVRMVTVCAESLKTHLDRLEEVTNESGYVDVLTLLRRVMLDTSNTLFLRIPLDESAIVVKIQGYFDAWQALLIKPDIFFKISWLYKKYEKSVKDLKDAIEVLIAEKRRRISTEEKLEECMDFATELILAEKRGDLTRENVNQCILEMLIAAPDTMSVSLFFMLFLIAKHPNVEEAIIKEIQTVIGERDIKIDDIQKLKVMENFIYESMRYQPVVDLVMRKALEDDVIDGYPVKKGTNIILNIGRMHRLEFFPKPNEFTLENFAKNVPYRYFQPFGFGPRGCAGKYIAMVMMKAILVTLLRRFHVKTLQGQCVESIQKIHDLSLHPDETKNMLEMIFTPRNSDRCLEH
The data set can be described thus: CYP19A1 inhibition (CYP19/MFC High Throughput Inhibitor Screen Kit, fluorescence). Type of data set: biochemical. The following applies: 7.5 pmol/ml CYP19A1, 25 μM MFC; top concentration 50 μM (acetonitrile) or 25 μM (DMSO); read-out: CYP19A1 IC50. How it is done: Test compounds and control inhibitors were prepared as stocks in either Acetonitrile or DMSO from the solid compound. Compounds were serially diluted in ½ log steps in the same solvent.
CYP19A1 inhibition experiments were performed using the CYP19/MFC High Throughput Inhibitor Screen Kit (Corning).
CYP19A1 reactions were performed in black 96 well-plates (Greiner) according to the manufacturer's instructions. […] Final organic solvent concentrations were either 4% (v/v) acetonitrile or 0.5% (v/v) Dimethyl sulfoxide. The plates were covered with self-adhesive film lids and incubated for 10 minutes at 37° C. Reactions were terminated by the addition of 75 μl Stop Solution (100 mM Tris base in acetonitrile: MilliQ water (80:20).
Fluorescence of 7-Hydroxy-4-trifluoromethylcoumarin (HFC) was measured on a SpectraMax® i3x (Molecular Devices) using 409 nm and 530 nm as excitation and emission wavelengths, respectively.
The CYP activities for each test compound/positive control inhibitor at each concentration were converted to % of control activity (CA). The LC-MS/MS peak responses (CYP metabolite peak area/internal standard peak area) for each test compound or positive control inhibitor were used and the response for each sample was expressed as a percentage of an uninhibited control (DMSO incubation). The data were then expressed as (log(CA/100-CA) and used to generate a pseudo-Hill plot, the slope and y axis intercept are used to calculate the IC50-value according to the following equation.

Like-named read-outs stand apart in the source and are kept apart here.

T6 sequence (P33261 whole entry): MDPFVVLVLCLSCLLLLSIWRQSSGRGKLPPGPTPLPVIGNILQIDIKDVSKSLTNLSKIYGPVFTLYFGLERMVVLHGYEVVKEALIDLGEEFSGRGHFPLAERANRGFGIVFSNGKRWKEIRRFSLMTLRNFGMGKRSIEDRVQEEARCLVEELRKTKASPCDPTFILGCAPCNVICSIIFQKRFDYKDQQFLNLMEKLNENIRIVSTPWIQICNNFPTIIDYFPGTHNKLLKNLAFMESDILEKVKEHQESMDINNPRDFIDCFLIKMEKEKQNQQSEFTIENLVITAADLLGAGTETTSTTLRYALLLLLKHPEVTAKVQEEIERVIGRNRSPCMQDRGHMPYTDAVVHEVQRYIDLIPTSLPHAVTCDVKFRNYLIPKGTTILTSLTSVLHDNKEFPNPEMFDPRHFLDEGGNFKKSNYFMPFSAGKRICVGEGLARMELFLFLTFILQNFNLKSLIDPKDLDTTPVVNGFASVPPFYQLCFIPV
T3 sequence (P10635 whole entry): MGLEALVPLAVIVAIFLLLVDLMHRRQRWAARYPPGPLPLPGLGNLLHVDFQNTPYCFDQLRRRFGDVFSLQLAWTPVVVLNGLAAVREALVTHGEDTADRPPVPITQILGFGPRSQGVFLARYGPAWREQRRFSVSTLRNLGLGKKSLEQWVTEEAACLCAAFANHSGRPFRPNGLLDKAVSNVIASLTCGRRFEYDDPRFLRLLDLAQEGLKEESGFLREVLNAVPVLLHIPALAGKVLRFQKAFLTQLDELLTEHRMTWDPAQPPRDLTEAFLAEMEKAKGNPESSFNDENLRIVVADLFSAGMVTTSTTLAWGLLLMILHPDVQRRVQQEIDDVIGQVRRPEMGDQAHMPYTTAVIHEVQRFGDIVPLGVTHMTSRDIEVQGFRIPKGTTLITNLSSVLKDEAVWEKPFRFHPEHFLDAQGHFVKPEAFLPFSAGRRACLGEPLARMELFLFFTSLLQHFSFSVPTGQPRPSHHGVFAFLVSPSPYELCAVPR
T4 sequence (P08684 whole entry): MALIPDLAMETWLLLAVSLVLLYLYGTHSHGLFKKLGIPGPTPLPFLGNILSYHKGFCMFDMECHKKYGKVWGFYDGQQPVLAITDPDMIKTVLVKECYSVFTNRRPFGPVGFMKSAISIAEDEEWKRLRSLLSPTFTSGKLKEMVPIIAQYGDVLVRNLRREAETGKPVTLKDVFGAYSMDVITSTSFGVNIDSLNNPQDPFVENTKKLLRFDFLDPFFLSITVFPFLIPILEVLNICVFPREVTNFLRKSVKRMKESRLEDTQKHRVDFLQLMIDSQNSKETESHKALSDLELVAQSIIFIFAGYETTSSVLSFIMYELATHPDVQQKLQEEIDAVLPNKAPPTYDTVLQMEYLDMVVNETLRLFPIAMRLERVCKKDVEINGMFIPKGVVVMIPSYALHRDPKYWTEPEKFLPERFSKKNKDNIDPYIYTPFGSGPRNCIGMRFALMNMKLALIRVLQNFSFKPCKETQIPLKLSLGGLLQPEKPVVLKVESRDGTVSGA
T2 sequence (P11712 whole entry): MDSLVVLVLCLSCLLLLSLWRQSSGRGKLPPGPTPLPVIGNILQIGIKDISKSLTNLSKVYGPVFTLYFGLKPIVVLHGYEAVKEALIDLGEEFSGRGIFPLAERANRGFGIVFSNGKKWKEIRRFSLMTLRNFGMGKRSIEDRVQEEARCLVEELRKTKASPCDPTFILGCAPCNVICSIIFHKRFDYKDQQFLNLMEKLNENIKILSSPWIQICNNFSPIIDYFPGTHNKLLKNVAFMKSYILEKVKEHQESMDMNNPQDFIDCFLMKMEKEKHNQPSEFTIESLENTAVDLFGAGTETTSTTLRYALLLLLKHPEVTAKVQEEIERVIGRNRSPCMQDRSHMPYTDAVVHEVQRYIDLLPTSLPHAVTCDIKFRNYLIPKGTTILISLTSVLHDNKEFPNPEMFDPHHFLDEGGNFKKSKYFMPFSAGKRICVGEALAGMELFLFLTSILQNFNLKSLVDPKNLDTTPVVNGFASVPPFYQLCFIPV

For orientation: pIC50 means −log10 of the IC50, conventionally taken in molar units. Turning to `O=C(NC1CC1)c1ccc2cc(C3(O)CCn4cncc43)ccc2c1` (racemic) [5bx [7]], the pIC50 at CYP17A1 [1] is 6.600.

As to `CCCC(=O)Nc1ccc(C(=O)C(C)OC(=O)c2n[nH]c3ccccc23)cc1` (racemic) [Compound 6, 1-(4-butanamidophenyl)-1-oxopropan-2-yl-1H-indazole-3-carboxylate], the “inhibitory potency of CYP17A1 (in words)” value against CYP17A1 [2] was “micromolar levels”.

As for `CNC(=O)c1ccc2cc(C(O)(c3cnc[nH]3)C(C)C)ccc2c1` (stereo not shown) [1 [11], 6-[1-Hydroxy-1-isopropyl(1H-imidazol-5-yl)methyl]-Nmethylnaphthalene-2-carboxamide], the pIC50 at CYP17A1 [1] is on record as 7.800.

Turning to `Brc1ccc(Cc2ccncc2)cc1` [3g [11]], the negative logarithm of the IC50 (pIC50) at CYP17A1 [1] was 6.400.

Broadly, the IC50 is the midpoint of a concentration-inhibition curve. For `COc1ccc(-c2ccc(Cc3ccncc3)cc2)cc1OC` [9a [9], 4-[(3′,4′-Dimethoxybiphenyl-4-yl)methyl]pyridine], the IC50 on CYP17A1 [1] was 52 nM.

Take `Cl.Fc1ccc(-c2ccc3c(c2)CCC3c2cccnc2)cc1` (stereo not shown) [15 [13]]: at CYP17A1 [1], the pIC50 was 4.700.

Consider `CCc1ccc(NC(=O)c2cc(C(=O)c3cc(OC)ccc3O)coc2=N)cc1` [Compound 1, N-(4-ethylphenyl)-5-(2-hydroxy-5-methoxybenzoyl)-2-imino-2H-pyran-3-carboxamide], for which, in data set [3], the “inhibition of metabolic CYP450 isoforms (in words)” value (shortened to “inhibition”) is reported as “inhibit various CYP450 isoforms”. In addition, the IC50 was 6.1 µM at CYP2C9; 36.3 µM on CYP2D6; 14.6 µM against CYP3A4; 27.9 µM on CYP1A2; 14.9 µM against CYP2C19; more than 50 µM at CYP17A1 [2]. On CYP17A1 [2], the “inhibitory potency of CYP17A1 (in words)” value is on record as “micromolar levels”.

On to `O=C(CSc1nnc(-c2c[nH]c3ccccc23)n1Cc1ccco1)NCc1ccccc1Cl` [Compound 2, N-[(2-chlorophenyl)methyl]-2-({4-[(furan-2-yl)methyl]-5-(1H-indol-3-yl)-4H-1,2,4-triazol-3-yl}sulfanyl)acetamide], for which the “inhibition” value in data set [3] is “inhibit various CYP450 isoforms”. Also, the IC50 at CYP2C9 is 1.8 µM; at CYP2D6, 8.1 µM; against CYP3A4, 1.1 µM; at CYP1A2 it was 4.5 µM; against CYP2C19, 3.5 µM; on CYP17A1 [2], more than 50 µM. In addition, the “inhibitory potency of CYP17A1 (in words)” value on CYP17A1 [2] is reported as “micromolar levels”.

Take `COC(C)C(=O)Nc1cccc(NC(C(N)=O)c2ccccc2)c1` (stereo not shown) [Compound 5, N-(3-{[carbamoyl(phenyl)methyl]amino}phenyl)-2-methoxypropanamide]: the IC50 on CYP19A1, on CYP2C9, on CYP2D6, at CYP3A4, against CYP1A2 and at CYP2C19 was more than 50 µM each time.

Take `O=C1COc2cc(NCc3cccc(NC(=O)c4ccccc4Cl)c3)c(Cl)cc2N1` [Compound 7, 2-chloro-N-(3-{[(6-chloro-3-oxo-3,4-dihydro-2H-1,4-benzoxazin-7-yl)amino]methyl}phenyl)benzamide]: the IC50 on CYP19A1 is more than 25 µM; on CYP2D6, more than 50 µM; at CYP3A4 it was 0.7 µM; on CYP1A2, more than 50 µM; on CYP2C19, more than 50 µM. Also, on CYP17A1 [2], the “inhibitory potency of CYP17A1 (in words)” value is “micromolar levels”.

On to `O=C1COc2cc(NCc3cccc(C(=O)Nc4cccnc4)c3)c(O)cc2N1` [Compound 8, 3-{[(6-hydroxy-3-oxo-3,4-dihydro-2H-1,4-benzoxazin-7-yl)amino]methyl}-N-(pyridin-3-yl)benzamide], for which the IC50 at CYP19A1 was 5.9 µM; on CYP2C9, 7.9 µM; on CYP2D6, more than 50 µM; on CYP3A4 it was 2.8 µM; at CYP1A2 it was 2.7 µM; at CYP2C19 it was 44.6 µM.

Take `O=C(Nc1ccccc1O)c1ccc(Oc2cccc(C(=O)Nc3ccccc3O)c2)cc1` [Compound 9, N-(2-hydroxyphenyl)-4-{3-[(2-hydroxyphenyl)carbamoyl]phenoxy}benzamide]: the IC50 at CYP2C9, against CYP2D6, on CYP3A4, against CYP1A2, against CYP2C19 and at CYP17A1 [2] was more than 50 µM in each case. Further, the “inhibitory potency of CYP17A1 (in words)” value against CYP17A1 [2] is reported as “micromolar levels”.

As to `O=C1COc2cc(NCc3cccc(C(=O)Nc4cccnc4)c3)ccc2N1` [Compound 10, 3-{[(3-oxo-3,4-dihydro-2H-1,4-benzoxazin-7-yl)amino]methyl}-N-(pyridin-3-yl)benzamide], the IC50 at CYP19A1 was 5.7 µM; against CYP2C9 it was more than 50 µM; at CYP2D6, more than 50 µM; against CYP3A4 it was 6.6 µM; against CYP1A2, 2.1 µM; on CYP2C19, more than 50 µM. Further, the IC50 on CYP17A1 [2] is more than 50 µM. Further, the “inhibitory potency of CYP17A1 (in words)” value on CYP17A1 [2] was “micromolar levels”.

In the case of `O=C1COc2cc(NCc3cccc(C(=O)Nc4cccnc4)c3)c(Cl)cc2N1` [Compound 13, 3-{[(6-chloro-3-oxo-3,4-dihydro-2H-1,4-benzoxazin-7-yl)amino]methyl}-N-(pyridin-3-yl)benzamide], the “inhibition” value in [3] is “inhibit various CYP450 isoforms”. The IC50 was 14.5 µM at CYP19A1; more than 50 µM against CYP2D6; 1.1 µM on CYP3A4; 0.6 µM against CYP1A2; more than 50 µM on CYP2C19; more than 50 µM against CYP17A1 [2].

Regarding `COc1cc2ccc([C@](O)(c3c[nH]cn3)C(C)C)cc2cc1OC` [TAK700, [(1S)-1-(6,7-dimethoxy-2-naphthyl)-1-(1H-imidazol-4-yl)-2-methylpropan-1-ol]], on CYP17A1 [1], the IC50 is 28 nM and the pIC50 is 7.550.
